In ChEMBL document CHEMBL1133311, “Synthesis and PKC isozyme surrogate binding of indothiolactam-V, a new thioamide analogue of tumor promoting indolactam-V” (Bioorg Med Chem Lett, 2000):

How the values were obtained:
[1] = target: T1, Protein kinase C alpha type (Homo sapiens, UniProt P17252); experiment: Displacement of [3H]- PDBu from Protein kinase C alpha C1a domain
[2] = target: T1, Protein kinase C alpha type; experiment: Displacement of [3H]- PDBu from Protein kinase C alpha C1b domain
[3] = target: T2, Protein kinase C delta type (Homo sapiens, UniProt Q05655); experiment: Displacement of [3H]- PDBu from Protein kinase C delta C1a domain
T2 sequence (Q05655 whole entry, the tested form may be a part): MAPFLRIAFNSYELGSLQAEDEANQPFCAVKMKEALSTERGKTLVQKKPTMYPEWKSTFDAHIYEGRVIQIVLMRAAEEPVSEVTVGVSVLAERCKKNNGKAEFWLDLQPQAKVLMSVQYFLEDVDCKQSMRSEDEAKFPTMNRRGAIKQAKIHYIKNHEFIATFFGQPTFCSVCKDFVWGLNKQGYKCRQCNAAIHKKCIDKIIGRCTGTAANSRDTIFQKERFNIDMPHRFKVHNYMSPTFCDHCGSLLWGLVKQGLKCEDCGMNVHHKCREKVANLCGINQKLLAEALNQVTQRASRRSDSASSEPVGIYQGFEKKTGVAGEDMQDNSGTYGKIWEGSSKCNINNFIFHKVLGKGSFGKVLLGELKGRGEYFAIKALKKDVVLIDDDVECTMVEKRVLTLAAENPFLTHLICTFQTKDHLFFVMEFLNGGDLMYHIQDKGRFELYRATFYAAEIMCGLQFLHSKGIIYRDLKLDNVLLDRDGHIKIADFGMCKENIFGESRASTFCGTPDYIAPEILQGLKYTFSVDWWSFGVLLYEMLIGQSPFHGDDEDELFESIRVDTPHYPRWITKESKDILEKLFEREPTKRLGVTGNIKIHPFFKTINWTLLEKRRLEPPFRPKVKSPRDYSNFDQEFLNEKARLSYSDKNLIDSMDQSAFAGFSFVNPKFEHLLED

[4] = target: T3, Protein kinase C eta type (Homo sapiens, UniProt P24723); experiment: Displacement of [3H]- PDBu from Protein kinase C eta C1a domain
T3 sequence (P24723 whole entry, the tested form may be a part): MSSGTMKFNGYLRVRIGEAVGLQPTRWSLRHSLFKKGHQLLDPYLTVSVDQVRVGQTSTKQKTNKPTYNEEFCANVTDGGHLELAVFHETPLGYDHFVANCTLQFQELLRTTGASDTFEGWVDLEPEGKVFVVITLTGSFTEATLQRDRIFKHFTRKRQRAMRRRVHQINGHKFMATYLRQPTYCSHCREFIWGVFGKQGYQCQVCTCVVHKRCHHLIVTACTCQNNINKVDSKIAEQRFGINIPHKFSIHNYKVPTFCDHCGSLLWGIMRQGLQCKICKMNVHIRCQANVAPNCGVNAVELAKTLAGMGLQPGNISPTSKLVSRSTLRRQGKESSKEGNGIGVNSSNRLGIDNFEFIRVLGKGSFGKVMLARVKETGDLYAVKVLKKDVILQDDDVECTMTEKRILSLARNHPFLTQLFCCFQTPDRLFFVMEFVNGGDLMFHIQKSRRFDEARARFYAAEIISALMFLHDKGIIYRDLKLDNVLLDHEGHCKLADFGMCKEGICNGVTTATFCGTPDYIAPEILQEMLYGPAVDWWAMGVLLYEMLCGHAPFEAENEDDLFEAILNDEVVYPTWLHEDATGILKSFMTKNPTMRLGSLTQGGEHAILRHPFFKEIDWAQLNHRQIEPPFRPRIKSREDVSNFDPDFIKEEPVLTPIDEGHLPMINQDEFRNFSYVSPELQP

[5] = target: T3, Protein kinase C eta type; experiment: Displacement of [3H]- PDBu from Protein kinase C eta C1b domain
[6] = target: T4, Protein kinase C beta type (Homo sapiens, UniProt P05771); experiment: Displacement of [3H]- PDBu from Protein kinase C beta C1b domain
T4 sequence (P05771 whole entry, the tested form may be a part): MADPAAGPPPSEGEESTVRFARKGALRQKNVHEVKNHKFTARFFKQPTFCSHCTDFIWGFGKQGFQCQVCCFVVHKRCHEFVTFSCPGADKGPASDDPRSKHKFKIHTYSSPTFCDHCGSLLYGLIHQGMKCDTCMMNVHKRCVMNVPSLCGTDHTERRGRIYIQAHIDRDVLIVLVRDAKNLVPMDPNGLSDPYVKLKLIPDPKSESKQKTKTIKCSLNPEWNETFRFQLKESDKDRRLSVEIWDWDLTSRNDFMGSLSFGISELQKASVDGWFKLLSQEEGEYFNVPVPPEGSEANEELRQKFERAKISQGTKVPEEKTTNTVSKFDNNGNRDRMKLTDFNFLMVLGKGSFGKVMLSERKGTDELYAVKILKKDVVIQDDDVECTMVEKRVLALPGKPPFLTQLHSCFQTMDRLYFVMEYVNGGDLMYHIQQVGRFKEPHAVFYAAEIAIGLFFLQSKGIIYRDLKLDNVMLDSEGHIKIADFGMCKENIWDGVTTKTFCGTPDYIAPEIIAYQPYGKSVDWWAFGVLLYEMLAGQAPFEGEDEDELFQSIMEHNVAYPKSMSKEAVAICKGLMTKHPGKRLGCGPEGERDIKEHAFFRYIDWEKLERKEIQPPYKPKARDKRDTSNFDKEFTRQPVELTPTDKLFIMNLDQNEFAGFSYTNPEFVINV

[7] = target: T4, Protein kinase C beta type; experiment: Displacement of [3H]- PDBu from Protein kinase C beta C1a domain
[8] = target: T2, Protein kinase C delta type; experiment: Displacement of [3H]- PDBu from Protein kinase C delta C1b domain
[9] = target: Protein kinase C theta type (Homo sapiens, UniProt Q04759); experiment: Displacement of [3H]- PDBu from Protein kinase C theta C1b domain
Protein kinase C theta type, sequence (Q04759 whole entry, the tested form may be a part): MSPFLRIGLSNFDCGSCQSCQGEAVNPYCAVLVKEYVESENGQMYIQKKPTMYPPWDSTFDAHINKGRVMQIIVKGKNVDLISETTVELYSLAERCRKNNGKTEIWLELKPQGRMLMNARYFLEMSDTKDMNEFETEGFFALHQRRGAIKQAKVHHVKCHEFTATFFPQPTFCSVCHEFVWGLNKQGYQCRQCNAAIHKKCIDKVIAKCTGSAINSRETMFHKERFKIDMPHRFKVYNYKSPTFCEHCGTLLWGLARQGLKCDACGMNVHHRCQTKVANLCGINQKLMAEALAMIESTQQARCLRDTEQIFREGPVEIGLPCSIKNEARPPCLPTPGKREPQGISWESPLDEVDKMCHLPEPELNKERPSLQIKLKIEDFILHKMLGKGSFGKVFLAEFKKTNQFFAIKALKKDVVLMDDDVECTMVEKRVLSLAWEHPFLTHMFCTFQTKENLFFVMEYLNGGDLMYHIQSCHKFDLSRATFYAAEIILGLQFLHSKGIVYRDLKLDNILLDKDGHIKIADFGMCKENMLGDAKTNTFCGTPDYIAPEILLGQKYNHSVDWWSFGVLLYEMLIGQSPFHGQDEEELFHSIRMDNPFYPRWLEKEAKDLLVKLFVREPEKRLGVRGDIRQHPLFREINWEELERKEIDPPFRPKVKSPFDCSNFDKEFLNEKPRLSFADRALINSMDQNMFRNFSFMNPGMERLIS

[10] = target: T5, Protein kinase C gamma type (Homo sapiens, UniProt P05129); experiment: Displacement of [3H]- PDBu from Protein kinase C gamma C1a domain
[11] = target: T5, Protein kinase C gamma type; experiment: Displacement of [3H]- PDBu from Protein kinase C gamma C1b domain
[12] = target: T6, Protein kinase C epsilon type (Homo sapiens, UniProt Q02156); experiment: Displacement of [3H]- PDBu from Protein kinase C epsilon C1a domain
T6 sequence (Q02156 whole entry): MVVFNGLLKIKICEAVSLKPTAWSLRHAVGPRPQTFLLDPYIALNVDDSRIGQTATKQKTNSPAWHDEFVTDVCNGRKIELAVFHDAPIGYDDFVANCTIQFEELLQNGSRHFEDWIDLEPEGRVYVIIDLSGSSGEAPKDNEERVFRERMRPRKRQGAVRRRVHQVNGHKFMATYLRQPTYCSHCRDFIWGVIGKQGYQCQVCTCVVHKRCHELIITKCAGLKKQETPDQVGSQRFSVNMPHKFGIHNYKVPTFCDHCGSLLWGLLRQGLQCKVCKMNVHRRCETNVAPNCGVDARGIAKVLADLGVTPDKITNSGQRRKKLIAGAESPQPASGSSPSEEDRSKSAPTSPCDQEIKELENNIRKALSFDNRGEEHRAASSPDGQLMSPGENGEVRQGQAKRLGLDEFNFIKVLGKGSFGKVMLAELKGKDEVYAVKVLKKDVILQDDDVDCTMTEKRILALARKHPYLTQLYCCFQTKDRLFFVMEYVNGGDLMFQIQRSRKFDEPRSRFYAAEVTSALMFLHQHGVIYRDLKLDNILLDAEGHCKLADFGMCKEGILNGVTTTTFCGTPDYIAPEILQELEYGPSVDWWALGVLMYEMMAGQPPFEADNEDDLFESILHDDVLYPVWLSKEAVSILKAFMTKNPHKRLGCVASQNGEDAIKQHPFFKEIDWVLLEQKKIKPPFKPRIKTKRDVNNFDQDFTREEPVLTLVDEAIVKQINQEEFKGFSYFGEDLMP

[13] = target: T6, Protein kinase C epsilon type; experiment: Displacement of [3H]- PDBu from Protein kinase C epsilon C1b domain

Compound	Ki [1]	Ki [2]	Ki [3]	Ki [4]	Ki [5]	Ki [6]	Ki [7]	Ki [8]	Ki [9]	Ki [10]	Ki [11]	Ki [12]	Ki [13]
CC(C)[C@H]1C(=S)N[C@H](CO)Cc2c[nH]c3cccc(c23)N1C	0.261 µM	2.14 µM	2.95 µM	2.16 µM	0.0206 µM	0.226 µM	0.18 µM	0.0675 µM	0.0616 µM	0.296 µM	0.288 µM	3.86 µM	0.0415 µM
CC(C)[C@H]1C(=O)N[C@H](CO)Cc2c[nH]c3cccc(c23)N1C [INDOLACTUM]	0.127 µM	4 µM	1.9 µM	3.77 µM	0.0055 µM	0.136 µM	0.173 µM	0.0083 µM	0.0087 µM	0.138 µM	0.213 µM	4.11 µM	0.0077 µM
